Series [1] has as its system liver enzymes and total bilirubin in female SA rats. Briefly: Liver toxicity (serum liver enzymes and bilirubin). Type of series: in vivo. Conditions: rat, 2 x 37.5 μmole/kg iv infusion, 12 h after second dose; for Total Bilirubin: vehicle 0.10 ±0.04; for SGPT: vehicle 80 ±10; for SGOT: vehicle 102 ±12; for Alkaline Phosphatase: vehicle 140 ±50. Here is the method:
Female SA rats (150-200 g) were anesthetized with halothane and a chronic catheter was placed in the internal jugular vein. The animals were allowed to recover for 3 days. […] Twelve hours later, an additional 37.5 μmole/kg was infused over 40 minutes (total dose=75 μmole/kg). Twelve hours after the second dose, the animals were anesthetized with halothane and exsanguinated through the descending aorta. Liver enzymes (serum glutamic-oxaloacetic transaminase (SGOT), serum glutamic-pyruvic transaminase (SGPT), alkaline phosphatase) and total bilirubin in the serum samples were determined by a commercial laboratory.

The target in another series is adenosine kinase. Nature of the series: AK inhibition (adenosine kinase activity, [U-14C] adenosine). Type of series: biochemical, partially purified pig heart or recombinant human. Conditions: 0.5 μM adenosine, 1 mM ATP, pH 7.0, 20 min; pig heart or recombinant human enzyme. Here is the method:
Adenosine kinase activity was measured essentially as described by Yamada et al. Biochim. Biophys. Acta 660, 3643 (1988) with a few minor modifications. Assay mixtures contained 50 mM TRIS-maleate buffer, pH 7.0, 0.1% BSA, 1 mM ATP 1 mM MgCl2, 0.5 μM [U-^14 C] adenosine (400-600 mCi/mmol) and varying duplicate concentrations of inhibitor. […] The amount of ^14 C-AMP was quantified by scintillation counting.

The subject of series [2] is carrageenan paw swelling in rats. Nature of the series: Anti-inflammatory activity, carrageenan paw swelling. Type of series: in vivo. As to conditions: rat, swelling after 3 hours; for Carrageenan Paw (% inh) ip: 10 mg/kg ip, 30 min before carrageenan; for Carrageenan Paw (% inh) po: 10 mg/kg po, 1 h before carrageenan.
Series [3] concerns formalin-induced pain in rats. Nature of the series: Analgesic activity, formalin paw model. Conditions: rat, oral, 20 mg/kg. Type of series: in vivo. From the text: Pharmacol. Exper. Ther., 250:3, 915-922 (1989). See also, Life Sciences 51:171-76 (1992). These models measure pain avoidance and tolerance in response to a regulated stimulus, and compare the response of animals before and after they are given test compound. Formalin Paw Assay In this assay, injection of formalin, an irritant, into the hindpaw of rats typically evokes a biphasic response of pain-related behaviors. […] Phase I behavior is thought to be a direct effect of the irritant on nociceptors at the injection site while phase 2 behavior is thought to include a hyperalgesic component mediated by sensitization of neuronal elements within the spinal cord. Studies from other laboratories have found the first portion of Phase 2 (sometimes referred to as Phase 2a) to be most responsive to pharmacological manipulation. Rats (male, Simonsen) weighing between 100-200 g, are used in the present experiments. For screening purposes drugs are administered orally 90 min prior to initiation of formalin test. […] The rat is then immediately placed in a separate plexiglass box and scoring (described below) of the animal's behavior is begun at 1.7 min after formalin injection. […] This sequence is repeated over a 30 min period. […] Scores are continuously recorded directly onto an Excel spreadsheet.

Results on 37 compounds are retold here after patent US5763597A, “Orally active adenosine kinase inhibitors” (priority 1996, dated 1998).

SMILES strings stand for the structures.

For `C[C@H]1O[C@@H](n2cc(I)c3c(N)ncnc32)[C@H](O)[C@@H]1O` [REF. A, reference compound], in series [1], the “Total Bilirubin” value is reported as 0.76 mg/dL and the SGPT came to 76 IU/L.

In the case of `NC[C@H]1O[C@@H](n2nc(Br)c3c(N)ncnc32)[C@H](O)[C@@H]1O` [REF. B, 4amino-1-(5-amino-5-deoxy-1-D-ribofuranosyl)-3-bromopyrazolo[3,4d]pyrimidine, reference compound], in series [1], the “Total Bilirubin” value was determined as 0.30 mg/dL, the SGPT turned out to be 41 IU/L and the SGOT amounted to 100 IU/L. In the case of `C[C@H]1O[C@@H](n2cc(-c3ccccc3)c3c(Nc4cc(F)cc(F)c4)ncnc32)[C@H](O)[C@@H]1O` [compound 10], on adenosine kinase, the IC50 came out at 1 nM. Regarding `C[C@H]1O[C@@H](n2cc(-c3ccccc3)c3c(Nc4ccc(F)c(F)c4)ncnc32)[C@H](O)[C@@H]1O` [compound 11], the IC50 at adenosine kinase is 4 nM. In the case of `COc1ccc(Nc2ncnc3c2c(-c2ccccc2)cn3[C@@H]2O[C@H](C)[C@@H](O)[C@H]2O)cc1` [compound 13], on adenosine kinase, the IC50 came to 6 nM. As for `C[C@H]1O[C@@H](n2cc(-c3cccc(Cl)c3)c3c(Nc4ccccc4)ncnc32)[C@H](O)[C@@H]1O` [compound 15], at adenosine kinase, the IC50 was 16 nM. On to `Cc1ccc(-c2cn([C@@H]3O[C@H](C)[C@@H](O)[C@H]3O)c3ncnc(Nc4ccccc4)c23)cc1` [compound 16], for which the IC50 on adenosine kinase was 9 nM. Same read-out and setting: next, `C[C@H]1O[C@@H](n2cc(-c3ccccc3)c3c(Nc4cccc(Cl)c4)ncnc32)[C@H](O)[C@@H]1O` [compound 17]: 17 nM; `Cc1cccc(Nc2ncnc3c2c(-c2ccccc2)cn3[C@@H]2O[C@H](C)[C@@H](O)[C@H]2O)c1` [compound 18]: 4 nM; `C[C@H]1O[C@@H](n2cc(-c3ccccc3)c3c(Nc4cccc(F)c4)ncnc32)[C@H](O)[C@@H]1O` [compound 19]: 2 nM. For the compound `C[C@H]1O[C@@H](n2cc(-c3ccccc3)c3c(Nc4ccc(O)cc4)ncnc32)[C@H](O)[C@@H]1O` [compound 20], on adenosine kinase, the IC50 was 32 nM. Consider `C[C@H]1O[C@@H](n2cc(-c3ccc(F)cc3)c3c(Nc4ccccc4)ncnc32)[C@H](O)[C@@H]1O` [compound 24], for which, in series [2], the “Carrageenan Paw (% inh) ip” value came to 35.6 % inh and the “Carrageenan Paw (% inh) po” value was 21.3 % inh. Further, the IC50 on adenosine kinase amounted to 1 nM. As for `COc1ccc(-c2cn([C@@H]3O[C@H](C)[C@@H](O)[C@H]3O)c3ncnc(Nc4ccc(F)cc4)c23)cc1` [compound 25], the “% Inhibition Phase 1 Composite score” value in series [3] (Phase 1 (1.7-5 min post-formalin)) turned out to be 88.4%. Also, the “% Inhibition Phase 2 Composite score” value in series [3] (Phase 2 (10.3-30 min post-formalin)) was determined as 91.9%. Also, in series [3] (Phase 2, licking/biting incidences), the “% Inhibition Phase 2 Licking/biting” value came out at 100%. The IC50 on adenosine kinase was found to be 10 nM.

`CCc1ccc(Nc2ncnc3c2c(-c2ccccc2)cn3[C@@H]2O[C@H](C)[C@@H](O)[C@H]2O)cc1` [compound 29]: in series [2], the “Carrageenan Paw (% inh) ip” value amounted to 46.1 % inh and the “Carrageenan Paw (% inh) po” value came out at 10.7 % inh. Besides, the IC50 at adenosine kinase stood at 20 nM.

Take `C[C@H]1O[C@@H](n2cc(-c3cccc([N+](=O)[O-])c3)c3c(Nc4ccc(F)cc4)ncnc32)[C@H](O)[C@@H]1O` [compound 30]: the IC50 on adenosine kinase was determined as 28 nM.

With `COc1ccc(-c2cn([C@@H]3O[C@H](C)[C@@H](O)[C@H]3O)c3ncnc(Nc4ccc(C(N)=O)cc4)c23)cc1` [compound 31], in series [2], the “Carrageenan Paw (% inh) ip” value was found to be 17.2 % inh and the “Carrageenan Paw (% inh) po” value stood at 0 % inh. Besides, the IC50 on adenosine kinase was found to be 2 nM. For the compound `C[C@H]1O[C@@H](n2cc(-c3ccccc3)c3c(NCc4ccccc4)ncnc32)[C@H](O)[C@@H]1O` [compound 38], the concentration for half-maximal inhibition (IC50) at adenosine kinase was found to be 30 nM.

On to `CSc1ccc(Nc2ncnc3c2c(-c2ccccc2)cn3[C@@H]2O[C@H](C)[C@@H](O)[C@H]2O)cc1` [compound 40], for which the IC50 at adenosine kinase turned out to be 2 nM.

Regarding `C[C@H]1O[C@@H](n2c(Br)c(-c3ccccc3)c3c(Nc4ccc(F)cc4)ncnc32)[C@H](O)[C@@H]1O` [compound 41], the IC50 at adenosine kinase was determined as 42 nM.

Regarding `C[C@H]1O[C@@H](n2nc(-c3ccccc3)c3c(Nc4ccccc4)ncnc32)[C@H](O)[C@@H]1O` [compound 86], the IC50 at adenosine kinase turned out to be 4.5 nM. In the case of `[N-]=[N+]=NC[C@H]1O[C@@H](n2nc(-c3ccccc3)c3c(Nc4ccccc4)ncnc32)[C@H](O)[C@@H]1O` [compound 87], the IC50 at adenosine kinase amounted to 4.5 nM. Regarding `OC[C@H]1O[C@@H](n2nc(-c3ccccc3)c3c(Nc4ccccc4)ncnc32)[C@H](O)[C@@H]1O` [compound 88], at adenosine kinase, the IC50 came to 5 nM. In the case of `COc1ccc(Nc2ncnc3c2c(-c2ccccc2)nn3[C@@H]2O[C@H](C)[C@@H](O)[C@H]2O)cc1` [compound 89], the IC50 on adenosine kinase was determined as 17 nM. In the case of `COc1ccc(Nc2ncnc3c2c(-c2ccccc2)nn3[C@@H]2O[C@H](CN=[N+]=[N-])[C@@H](O)[C@H]2O)cc1` [compound 90], the IC50 on adenosine kinase came to 8 nM. As to `C[C@H]1O[C@@H](n2nc(-c3ccccc3)c3c(Nc4ccc(Cl)cc4)ncnc32)[C@H](O)[C@@H]1O` [compound 91], the IC50 on adenosine kinase was 11 nM.

As for `[N-]=[N+]=NC[C@H]1O[C@@H](n2nc(-c3ccccc3)c3c(Nc4ccc(Cl)cc4)ncnc32)[C@H](O)[C@@H]1O` [compound 92], the IC50 at adenosine kinase turned out to be 17 nM.

For the compound `Cc1ccc(-c2nn([C@@H]3O[C@H](CN=[N+]=[N-])[C@@H](O)[C@H]3O)c3ncnc(Nc4ccccc4)c23)cc1` [compound 93], the IC50 on adenosine kinase was 20 nM. For `COc1ccc(-c2nn([C@@H]3O[C@H](CN=[N+]=[N-])[C@@H](O)[C@H]3O)c3ncnc(Nc4ccccc4)c23)cc1` [compound 94], the IC50 at adenosine kinase is 3 nM. For `COc1ccc(-c2nn([C@@H]3O[C@H](CN=[N+]=[N-])[C@@H](O)[C@H]3O)c3ncnc(Nc4ccc(C)cc4)c23)cc1` [compound 95], the IC50 on adenosine kinase is 7 nM.

As for `[N-]=[N+]=NC[C@H]1O[C@@H](n2nc(-c3ccc(Cl)cc3)c3c(Nc4ccccc4)ncnc32)[C@H](O)[C@@H]1O` [compound 96], the IC50 at adenosine kinase stood at 15 nM. `CCOCc1ccc(Nc2ncnc3c2c(-c2ccccc2)cn3[C@@H]2O[C@H](C)[C@@H](O)[C@H]2O)cc1` [compound 125]: in series [2], the “Carrageenan Paw (% inh) ip” value is listed as 24.4 % inh and the “Carrageenan Paw (% inh) po” value turned out to be 0.0 % inh. In addition, the IC50 at adenosine kinase is 2 nM. Take `C[C@H]1O[C@@H](n2cc(-c3ccccc3)c3c(Nc4ccc(CC#N)cc4)ncnc32)[C@H](O)[C@@H]1O` [compound 126]: the concentration for half-maximal inhibition (IC50) on adenosine kinase stood at 1 nM.

Take `C[C@H]1O[C@@H](n2cc(-c3ccccc3)c3c(Nc4ccc(I)cc4)ncnc32)[C@H](O)[C@@H]1O` [compound 128]: in series [2], the “Carrageenan Paw (% inh) ip” value worked out at 18.9 % inh and the “Carrageenan Paw (% inh) po” value came to 0.0 % inh. The IC50 at adenosine kinase was 4 nM. Regarding `C[C@H]1O[C@@H](n2cc(-c3ccccc3)c3c(Nc4ccc(NC(=O)C(F)(F)F)cc4)ncnc32)[C@H](O)[C@@H]1O` [compound 129], in series [2], the “Carrageenan Paw (% inh) ip” value is recorded as 48.9 % inh and the “Carrageenan Paw (% inh) po” value amounted to 35.7 % inh. Also, the IC50 at adenosine kinase amounted to 2 nM. Moreover, in series [1], the “Total Bilirubin” value is given as 0.52 mg/dL, the SGPT is on record as 54 IU/L, the SGOT is recorded as 162 IU/L and the “Alkaline Phosphatase” value was 110 IU/L. As to `C[C@H]1O[C@@H](n2cc(-c3cccc(N)c3)c3c(Nc4ccc(F)cc4)ncnc32)[C@H](O)[C@@H]1O` [compound 131], in series [2], the “Carrageenan Paw (% inh) ip” value is on record as 44.2 % inh and the “Carrageenan Paw (% inh) po” value was determined as 15.9 % inh. Moreover, the IC50 on adenosine kinase came out at 3 nM. Further, in series [1], the “Total Bilirubin” value came out at 0.10 mg/dL, the SGPT was 65 IU/L, the SGOT was 120 IU/L and the “Alkaline Phosphatase” value is recorded as 169 IU/L. Regarding `C[C@H]1O[C@@H](n2cc(-c3ccc(C#N)cc3)c3c(Nc4ccc(F)cc4)ncnc32)[C@H](O)[C@@H]1O` [compound 132], at adenosine kinase, the IC50 is 10 nM.

Regarding `C[C@H]1O[C@@H](n2cc(-c3ccc(CNC(N)=O)cc3)c3c(Nc4ccc(F)cc4)ncnc32)[C@H](O)[C@@H]1O` [compound 197], in series [2], the “Carrageenan Paw (% inh) ip” value stood at 16.3 % inh and the “Carrageenan Paw (% inh) po” value is recorded as 21.5 % inh.
